Read-outs that look alike come from different tables or passages of the source.
Assay: Pharmacokinetics study after separate oral administration in rats (HPLC-MS of plasma)
Assay type: in vivo, Sprague-Dawley rats
Conditions: male, Sprague-Dawley, rat, plasma, 50 mg/kg; for Tmax / AUC(0-t) / CL/F / Cmax / MRT last / half-life: po, rat plasma; for Tmax: read-out: Tmax (converted); for CL/F: read-out: CLz/F; for Cmax: read-out: Cmax; for half-life: read-out: t1/2z
Method: A total of 15 SPF Sprague-Dawley rats (SD, male, 190–210 g) were provided by Sino-British Sippr/BK Lab Animal Company Ltd. (Shanghai, China). The rats were kept in standard conditions (22–26 °C; 40–60% relative humidity; 12 h light/dark cycle). Throughout the rearing period, the animals had access to food and water ad libitum. Animal experiments were conducted in accordance with the standard ethical guidelines of the Laboratory Animal Management Committee of Jiangsu Province (SYXK (SU) 2016-0011).
Following 1 week of adaptation, the rats were fasted for about 12 h before dosing, with free access to water. […] After administration of the first dose, blood samples were taken from the retro-orbital vein at 0, 5, 15, 30, 60, 90, 120, 180, 240, 360, 480, and 1,440 min and collected in heparinized tubes. The samples were centrifuged at 3,500 rpm for 10 min at 4 °C and the plasma was stored at −80 °C until analysis.
An Agilent 1,200 series HPLC system (Agilent Technologies, Waldbronn, Germany) equipped with a quaternary pump on-line degasser, auto-sampler and column oven, and an SL G1946D quadruple mass spectrometer (Agilent Technologies, Santa Clara, CA, USA) equipped with an electrospray ionization (ESI) source, were used for separation and detection. Data were acquired and analyzed using Agilent ChemStation Software Version A.01.00 (Agilent Technologies, Santa Clara, CA, USA).
The separation was carried out with an Amethyst C18-H column (150 × 4.6 mm, 5 μm, Sepax Technologies, Newark, DE, USA) with a guard column SB-C18 (10 × 4.6 mm, 5 μm, Phenomenex Technologies, Torrance, USA) at a constant temperature of 25 °C.
The mass spectra were acquired using ESI interfaced to a single quadrupole mass spectrometer. The ionization conditions were as follows: drying gas (N2) flow rate of 11 L/min, drying gas temperature of 350 °C, nebulizing gas (N2) pressure of 35 psi, capillary voltage of 3,500 V, quad temperature of 100 °C, and fragment voltage of 110 V. A series of m/z were monitored using a timed program according to the retention times and characteristic ions for the corresponding HPLC-MS peak obtained by scanning from m/z 100–1,000 in the standard sample.
Briefly, an aliquot of plasma sample (100 μL) was spiked with 5% formic acid (10 μL) in centrifuge tube. Subsequently, hydrochloric acid (2 mol/L, 10 μL) and IS solution (960.00 ng/mL, 20 μL) were added. Then ethyl acetate/n-butyl alcohol (1:1 v/v; 1,000 μL) was used to extract the components. The samples were then homogenized by vortex mixing and centrifuged for 10 min at 14,000 rpm. After centrifugation, 800 μL of supernatant was transferred to another centrifuge tube and the sample was evaporated to dryness. The residues were dissolved in 100 μL of methanol and centrifuged for 10 min at 12,000 rpm. 50 μL of the supernatant was transferred to the vial and an aliquot of 5 μL was injected into the HPLC-MS system for analysis.
DAS 2.0 (Chinese Pharmacological Association, Shanghai, China) was used to calculate the pharmacokinetic parameters using the non-compartment model, including the area under curve (AUC), mean residence time (MRT), half-life ( t1/2z), clearance rate (CL), maximum plasma concentration (Cmax), and time (Tmax). All results are expressed as mean ± standard deviation (SD). One way analysis of variance followed by […] was used for comparison of different groups using Graph pad prism 5 software. A p-value of <0.05 was considered statistically significant.

[1] = IQ group (oral IQ 50 mg/kg), labelled substance = analyte, mean of 5 rats
[2] = IQ group: oral IQ 50 mg/kg, mean ± SD, n = 5
[3] = QG group (oral QG 50 mg/kg), labelled substance = analyte, mean of 5 rats
[4] = QG group: oral QG 50 mg/kg, mean ± SD, n = 5
[5] = Qr group (oral Qr 50 mg/kg), labelled substance = analyte, mean of 5 rats
[6] = Qr group: oral Qr 50 mg/kg, mean ± SD, n = 5

Work on `O=c1c(O)c(-c2ccc(O)c(O)c2)oc2cc(O)cc(O)c12` [Qr, Quercetin] yielded a concentration at 5 min (oral, QG group (oral QG 50 mg/kg), 5 min, individual rats NO. 1-5, read-out: Plasma concentrations) of 0 ng/mL, a concentration at 15 min (oral, QG group (oral QG 50 mg/kg), 15 min, individual rats NO. 1-5, read-out: Plasma concentrations) of 0 ng/mL and a concentration at 30 min (oral, QG group (oral QG 50 mg/kg), 30 min, individual rats NO. 1-5, read-out: Plasma concentrations) of 0 ng/mL. For the same molecule, the concentration at 240 min (oral, Qr group (oral Qr 50 mg/kg), 240 min, individual rats NO. 1-5, read-out: Plasma concentrations) was 2590 ng/mL, the Tmax (IQ group (oral IQ 50 mg/kg), labelled substance = analyte, individual rats No1-No5) was 0.5 h and the AUC(0-t) (IQ group (oral IQ 50 mg/kg), labelled substance = analyte, mean of 5 rats, read-out: AUC(0-t) (converted)) was 36900 ng·h/mL. The CL/F [1] was 24 mL/min/kg, the Cmax [1] was 6600 ng/mL and the MRT last (IQ group (oral IQ 50 mg/kg), labelled substance = analyte, mean of 5 rats, read-out: MRT(0-t) (converted)) was 7.04 h. For the same molecule, the Tmax [1] was 0.7 h, the half-life [1] was 6.31 h and the AUC(0-t) (IQ group: oral IQ 50 mg/kg, mean ± SD, n = 5, read-out: AUC0−t (converted)) was 36900 ng·h/mL. For the same molecule, the Cmax [2] was 6600 ± 2670 ng/mL, the MRT last (IQ group: oral IQ 50 mg/kg, mean ± SD, n = 5, read-out: MRT0−t (converted)) was 7.04 h and the Tmax [2] was 0.7 h. It also gave a half-life [2] of 6.31 ± 5.65 h, a Tmax (QG group (oral QG 50 mg/kg), labelled substance = analyte, individual rats No1-No5) of 4 h and an AUC(0-t) (QG group (oral QG 50 mg/kg), labelled substance = analyte, mean of 5 rats, read-out: AUC(0-t) (converted)) of 58400 ng·h/mL. The CL/F [3] was 14 mL/min/kg, the Cmax [3] was 5170 ng/mL and the Tmax [3] was 6 h. It also gave a half-life [3] of 6.09 h, an AUC(0-t) (QG group: oral QG 50 mg/kg, mean ± SD, n = 5, read-out: AUC0−t (converted)) of 58400 ng·h/mL and a Cmax [4] of 5170 ± 1850 ng/mL. It also gave a Tmax [4] of 6 h, a half-life [4] of 6.09 ± 2.53 h and an MRT last (Qr group (oral Qr 50 mg/kg), labelled substance = analyte, individual rats No1-No5, read-out: MRT(0-t) (converted)) of 6.33 h. For the same molecule, the half-life (Qr group (oral Qr 50 mg/kg), labelled substance = analyte, individual rats No1-No5) was 7.67 h, the AUC(0-t) (Qr group (oral Qr 50 mg/kg), labelled substance = analyte, mean of 5 rats, read-out: AUC(0-t) (converted)) was 43200 ng·h/mL and the CL/F [5] was 20 mL/min/kg. The Cmax [5] was 7470 ng/mL, the Tmax [5] was 0.9 h and the half-life [5] was 7.29 h. For the same molecule, the AUC(0-t) (Qr group: oral Qr 50 mg/kg, mean ± SD, n = 5, read-out: AUC0−t (converted)) was 43200 ng·h/mL, the Cmax [6] was 7470 ± 2630 ng/mL and the Tmax [6] was 0.9 h. It also gave a half-life [6] of 7.29 ± 0.905 h.

From paper PMC6440464 (PeerJ, 2019)
